Results on seven molecules are retold here after patent US20240197823A1, “CATIONIC ANTIMICROBIAL PEPTIDES AND USES THEREOF” (priority 2021, published 2024).

Test [1] deals with MDR clinical strains of ESKAPE pathogens and E. coli provided by the CDC (AR isolates panel). Nature of the test: Advanced testing, MIC against CDC AR isolates panel. Type of test: cell-based. The settings on record: colistin-resistant strains. Here is the method: (§1) Bacteria. Bacterial clinical isolates, used for initial screening and in previous studies [Greber K E et al., 2017], were anonymously provided by the clinical microbiology laboratory of the University of Pittsburgh medical Center. The panel used for secondary screening was from CDC (Table 4), with resistance profiles data. Bacteria are stored in lock-secured −80° C. freezer and typically retrieved by obtaining single colonies on agar plates prior for subsequent liquid broth cultures. Suspensions of test bacteria were prepared from log phase of growth by diluting overnight cultures at 1:100 with fresh cation-adjusted MHB (MHB2, Millipore Sigma, USA) and incubating for additional 3-4 hours. Bacteria were spun at 3000×g for 10 minutes and the pellet resuspended in test condition media (Millipore Sigma, USA) to determine bacterial turbidity using a Den-1B densitometer (Grant Instruments, USA) at 0.5 McFarland (unit of bacterial density) corresponding to […].
(§2) Antibacterial assays. To examine antibacterial activity, this study used minor modifications of a standard growth inhibition assay endorsed by the Clinical and Laboratory Standards Institute (CLSI), as previously described [Greber K E et al., 2017]. Bacteria were incubated with each of the indicated peptides in MHB2. The bacterial cells were kept in an incubator for 18 hours at 37° C., which is linked to a robotic system that feeds a plate reader every hour with one of 8×96-well plates. This set-up allows the collection of growth kinetic data at A 570 (absorbance at 570 nm) to examine growth inhibition in real time (BioTek Instruments, USA). […] To assess bactericidal properties of the peptide, the assay was modified by using 15% fetal bovine serum (FBS, for a more physiologically relevant test condition) mixed with 25% MHB2 and 60% PBS. Bacterial cells (colony forming unit/mL or CFU/mL) were enumerated after incubating treated bacteria for 3 hours and plating serially diluted samples on broth agar medium at 37° C. overnight. […] For killing kinetics, we slightly modified the bactericidal assay to examine bacterial killing at the MBC (or 2×MBC) as a function of time for up to 3 hours. Data were analyzed using GraphPad Prism software.

The next test deals with E. coli. In words: microbe, parasite or virus in culture. Here is the method: as §1, §2
Test [2] concerns MDR panel of gram-negative (GNB) and -positive (GPB) bacterial isolates classified as ESKAPE pathogens. Here is the method:
as §1
Antibacterial assays. To examine antibacterial activity, this study used minor modifications of a standard growth inhibition assay endorsed by the Clinical and Laboratory Standards Institute (CLSI), as previously described [Greber K E et al., 2017]. Bacteria were incubated with each of the indicated peptides in MHB2. The bacterial cells were kept in an incubator for 18 hours at 37° C., which is linked to a robotic system that feeds a plate reader every hour with one of 8×96-well plates. This set-up allows the collection of growth kinetic data at A 570 (absorbance at 570 nm) to examine growth inhibition in real time (BioTek Instruments, USA). […] To assess bactericidal properties of the peptide, the assay was modified by using 15% fetal bovine serum (FBS, for a more physiologically relevant test condition) mixed with 25% MHB2 and 60% PBS. Bacterial cells (colony forming unit/mL or CFU/mL) were enumerated after incubating treated bacteria for 3 hours and plating serially diluted samples on broth agar medium at 37° C. overnight. […] Data were analyzed using GraphPad Prism software.

A further test deals with P. aeruginosa. Nature of the test: microbe, parasite or virus in culture. On the procedure:
as §1, §2

The test system of another test is Enterobacter spp. In words: MIC growth inhibition assay in MHB2. The format is cell-based, Enterobacter spp: EA (aerogenes), EC (cloacae). Here is the method:
as §1, §2

In the next test the test system is A. baumannii. In words: microbe, parasite or virus in culture. Here is the method:
as §1, §2

In the next test the test system is K. pneumoniae. In words: MIC growth inhibition assay in MHB2. The format is cell-based, klebsiella pneumoniae. The note with it: read-out: MIC. Here is the method:
as §1, §2

≈ marks a conversion by molar mass, not a printed value. Like-named read-outs stand apart in the source and are kept apart here. No end group written: not given here.

As to RWVRRVRRWVRRVRRVVRRW [E70], the cross-resistance with colistin result in test [1] is reported as “no cross-resistance at all”.

Consider RRVWRRVRRVWRRVRRVVRRVW [E71], for which the cross-resistance with colistin entry in test [1] is listed as “no cross-resistance at all”. In the test with E. coli, this molecule returned an MIC of 1 µM.

With RRWVRRVRRVWRRVRRVVRRWV [E4], the cross-resistance with colistin entry in test [1] is recorded as “no cross-resistance at all”.

As to `CC(C)C[C@H](NC(=O)[C@H](Cc1ccccc1)NC(=O)[C@@H]1CCCN1C(=O)[C@H](Cc1c[nH]c2ccccc12)NC(=O)[C@H](Cc1c[nH]c2ccccc12)NC(=O)[C@H](Cc1c[nH]c2ccccc12)NC(=O)[C@@H]1CCCN1C(=O)[C@H](Cc1ccccc1)NC(=O)[C@H](CCCNC(=N)N)NC(=O)[C@H](CCCNC(=N)N)NC(=O)[C@@H](N)C(C)C)C(=O)N[C@@H](CCCNC(=N)N)C(=O)N[C@@H](CCCNC(=N)N)C(=O)O` [tritrpticin], in test [2], the “mean MIC” value was > 10 µM.

In turn, RVWRRVRRVWRRVRRVWRRV [E69] registered an MIC in the test with P. aeruginosa of 2 µM.

In the case of RRWVRWVRRWVRWVRR [E80], the MIC against P. aeruginosa was determined as 2 µM.

Turning to `C[C@@H](O)[C@H]1C(=O)N2C(C(=O)O)=C(S[C@@H]3CN[C@H](C(=O)N(C)C)C3)[C@H](C)[C@H]12` [Mero], the MIC against Enterobacter spp (strain EA518 (aerogenes)) is >16 µM; against Enterobacter spp (strain EA596 (aerogenes)) it was 16 µM (≈ 6.14 µg/mL); with Enterobacter spp (strain EC470 (cloacae)), >16 µM; in the test with Enterobacter spp (strain EC560 (cloacae)) it was 16 µM (≈ 6.14 µg/mL); in the test on E. coli (strain Eco25922) it was 0.5 µM (≈ 0.192 µg/mL); against E. coli (strain YDC107), 1 µM (≈ 0.383 µg/mL). Also, the MIC against E. coli (strain YDC337) was 8 µM (≈ 3.07 µg/mL); against E. coli (strain YDC748), 8 µM (≈ 3.07 µg/mL); against A. baumannii (strain AB-A2) it was 4 µM (≈ 1.53 µg/mL); in the test on A. baumannii (strain AB-A3), >16 µM; against A. baumannii (strain AB-F8), 8 µM (≈ 3.07 µg/mL); against A. baumannii (strain AB-F9), 8 µM (≈ 3.07 µg/mL). Also, the MIC with K. pneumoniae (strain KP43816) was found to be 1 µM (≈ 0.383 µg/mL); in the test on K. pneumoniae (strain KPA5), 2 µM (≈ 0.767 µg/mL); in the test on K. pneumoniae (strain KPB3) it was 2 µM (≈ 0.767 µg/mL); in the test on K. pneumoniae (strain KPC3), 1 µM (≈ 0.383 µg/mL).
